Test results published in patent US20100154083A1, “Methods and Compositions for the Selection of A Transgenic Plant” (Pioneer Hi-Bred International, Inc., priority 2006, published 2010).

System: non-transgenic maize seed from inbred N46
Experiment: Priming matrix additive: Dormex + DMSO
Assay type: in vivo
Conditions: 1% DMSO without Dormex, 3 hours
Description: Non-transgenic maize seed from inbred N46 were primed with 0, 5, 10, 15, or 30% Dormex® solutions with and without 1% DMSO. For each treatment, 96 seeds were soaked in 50 ml of Dormex® solution in a petri dish for 3 hours at room temperature. After priming the seeds were transferred into pollination bags, and dried overnight in front of a fan. Dried primed seed were then planted into flats to germinate.

`C[S+](C)[O-]` [DMSO] gave a Germination % of 93%.
